Like-named read-outs stand apart in the source and are kept apart here.
Assays:
[1] = tested on: AR protein in RPE cells (BCRP-mediated transport); assay: Immunocytochemical analysis of nuclear-localized AR protein in RPE cells; type: cell-based, rat; conditions: 50 μmol/L novobiocin and/or 3 nmol/L dihydrotestosterone, 14 hours; immunocytochemistry, n>200 cells/group
BCRP [2] = molecular target: T1, BCRP (Rattus norvegicus, UniProt Q80W57); type: cell-based; conditions: RPE cells
T1 construct: the Mx-RPE cells have a higher level of BCRP activity than RPE cells; endogenous in cells; host or cells: Mx-RPE (mitoxantrone-resistant subline of rat RPE cells)
T1 sequence (Q80W57 1-657): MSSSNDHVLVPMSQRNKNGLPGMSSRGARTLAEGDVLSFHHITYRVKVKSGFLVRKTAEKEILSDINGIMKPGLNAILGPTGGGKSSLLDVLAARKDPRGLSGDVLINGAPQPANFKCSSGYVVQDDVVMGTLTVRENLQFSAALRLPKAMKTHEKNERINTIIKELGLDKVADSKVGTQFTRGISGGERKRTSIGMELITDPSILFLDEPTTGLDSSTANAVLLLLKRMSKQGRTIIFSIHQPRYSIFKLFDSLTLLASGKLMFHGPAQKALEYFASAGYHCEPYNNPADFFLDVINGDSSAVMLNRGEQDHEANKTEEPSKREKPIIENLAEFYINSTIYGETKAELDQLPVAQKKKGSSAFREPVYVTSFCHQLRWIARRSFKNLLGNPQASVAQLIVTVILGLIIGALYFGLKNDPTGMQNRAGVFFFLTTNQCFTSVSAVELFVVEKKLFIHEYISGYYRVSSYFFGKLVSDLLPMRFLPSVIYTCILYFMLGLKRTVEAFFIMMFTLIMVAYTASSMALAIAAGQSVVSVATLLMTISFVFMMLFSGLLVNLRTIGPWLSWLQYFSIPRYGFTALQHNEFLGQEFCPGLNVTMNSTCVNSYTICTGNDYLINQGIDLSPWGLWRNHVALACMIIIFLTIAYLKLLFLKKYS
From the text: (§1) Data for Hoechst 33342 efflux represent two independent experiments (n>1,000 cells, *** P<0.0001).
(§2) Additionally, novobiocin and fumitremorgin C were compared in RPE cells as inhibitors of BCRP-mediated efflux of Hoechst 33342, the marker utilized to identify the side population phenotype of stem cells. Fumitremorgin C is a specific inhibitor for BCRP-mediated transport.

BCRP [3] = molecular target: T1, BCRP; type: cell-based; conditions: Mx-RPE cells
From the text: as §1
Rat prostate progenitor (stem cell-like) cell lines (RPE, DP2, DP3, and DP4) were established from regenerating prostates of Fischer-344 rats and were maintained in prostate growth media (Presnell et al., Prostate Cancer Prostatic Dis (1999); 2:257-63) supplemented with 2% fetal bovine serum (FBS; Hyclone, Logan, UT) without androgen supplementation. […] A subpopulation of RPE cells was selected for resistance to mitoxantrone (Mx-RPE) by continuous culture in increasing concentrations of mitoxantrone (0.2-4 μmol/L; Sigma).
Additionally, novobiocin and fumitremorgin C were compared in RPE cells as inhibitors of BCRP-mediated efflux of Hoechst 33342, the marker utilized to identify the side population phenotype of stem cells. Fumitremorgin C is a specific inhibitor for BCRP-mediated transport. […] The moderate increase in nuclear Hoechst 33342 dye in RPE cells with inhibited BCRP function reflects a combination of the limited dynamic range of digital imaging technology and the constitutive expression of MDR-1 in the RPE cells (data not shown) because MDR-1 also effectively transports Hoechst 33342 dye; however, novobiocin and fumitremorgin C inhibit only the BCRP-mediated component of Hoechst efflux, not MDR-1 function (Doyle et al., Oncogene (2003); 22:7340-58; Shiozawa et al., Int. J. Cancer (2004); 108:146-51).

[4] = limiting use in vivo; cited from earlier work
[5] = tested on: AR protein in RPE cells (BCRP function); assay: Immunoblot analysis of AR protein in RPE cell lysates; type: cell-based, rat; conditions: 50 μmol/L novobiocin and/or 3 nmol/L dihydrotestosterone; normalized to actin
DP3 cell line = assay: Intracellular [3H]dihydrotestosterone accumulation in BCRP-lacking DP3 control cell line; type: cell-based, rat; conditions: DP3 cell line (lacks BCRP)
From the text: as §2

TRAMP mice = assay: Foci of SV40Tag+ cells in prostates of castrated TRAMP mice treated with novobiocin; type: in vivo, mouse; conditions: novobiocin 25 mg/kg/5 times a week
From the text: In this model, the PB-SV40 large T antigen transgene (SV40Tag) is expressed specifically in the epithelial cells of the murine prostate. Cells expressing the SV40Tag transgene can be detected by immunohistological methods using labeled monoclonal antibodies to SV40Tag. Adenocarcinoma of the prostate in TRAMP mice arises as early as eight weeks of age and is characterized by tumor cells that uniformly express high levels of AR and that regress upon castration. In contrast, poorly differentiated neuroendocrine-like carcinomas in TRAMP mice are characterized by expression of the neuroendocrine marker synaptophysin, and an absence, or weak and heterogeneous expression of AR. Neuroendocrine-like carcinomas are rare in young TRAMP mice, but arise rapidly in mice that are castrated between 12 and 14 weeks of age (Kaplan-Lefko et al., Prostate (2003); 55:219-37; Johnson et al., Prostate (2005); 62:322-38).
Treatment of the TRAMP mice with novobiocin (25 mg/kg/5 times a week), or saline (physiologic saline/5 times a week), was initiated at 13 weeks of age and all mice were castrated at 14 weeks of age (1 week following initiation of treatment). TRAMP mice were treated until 19 weeks of age, at which time the prostates, lymph nodes, small intestine, and liver were harvested and processed for analysis using standard techniques. […]

[6] = cited from earlier work

| SMILES | increase in the level of nuclear-localized AR in RPE cells [1] | increase in nuclear Hoechst 33342 compared with the DMSO control (BCRP [2]; 10 μmol/L fumitremorgin C) | increase in intracellular levels of [3H]dihydrotestosterone (BCRP [3]; 10 μmol/L fumitremorgin C) | neurotoxicity [4] | increase of AR protein in RPE cells (immunoblot) [5] | increase in retention of Hoechst 33342 (BCRP [2]; 5 mmol/L novobiocin) | increase in retention of Hoechst 33342 (BCRP [2]; 10 mmol/L novobiocin) | increase in intracellular levels of [3H]dihydrotestosterone (BCRP [3]; 5 mmol/L novobiocin) | increase in intracellular levels of [3H]dihydrotestosterone (BCRP [3]; 10 mmol/L novobiocin) | effect on the level of accumulation of intracellular [3H]dihydrotestosterone (DP3 cell line) | establishment of recurrent growth in TRAMP (TRAMP mice) | #Foci/Animal, pattern: >10 cells Differentiated (TRAMP mice; 13 to 19 weeks of age) | toxicity in humans [6] |
| --- | --- | --- | --- | --- | --- | --- | --- | --- | --- | --- | --- | --- | --- |
| C[C@]12CCC(=O)C[C@@H]1CC[C@@H]1[C@@H]2CC[C@]2(C)[C@@H](O)CC[C@@H]12 [dihydrotestosterone] | 2.8 fold |  |  |  |  |  |  |  |  |  |  |  |  |
| COc1ccc2c3c([nH]c2c1)[C@H](C=C(C)C)N1C(=O)[C@@H]2CCCN2C(=O)[C@@H]1C3 [fumitremorgin C] |  | 2.3 fold | 3.3 fold | extremely neurotoxic |  |  |  |  |  |  |  |  |  |
| CO[C@@H]1[C@@H](OC(N)=O)[C@@H](O)[C@H](Oc2ccc3c(O)c(NC(=O)c4ccc(O)c(CC=C(C)C)c4)c(=O)oc3c2C)OC1(C)C [novobiocin] | 2.4 fold |  |  |  | 7 fold | 1.2 fold | 1.45 fold | 2.4 fold | 5.5 fold | no effect | inhibited establishment of recurrent growth | significant increase | well tolerated toxicity in humans |
